Among the data in patent US10385067B2, “Sodium (2R,5S,13aR)-7,9-dioxo-10-((2,4,6-trifluorobenzyl)carbamoyl)-2,3,4,5,7,9,13,13a-octahydro-2,5-methanopyrido[1′,2′:4,5]pyrazino[2,1-b][1,3]oxazepin-8-olate” (Gilead Sciences, Inc., priority 2014, dated 2019) are anti-viral activity and stability values, retold here.

The test system of one series is HIV. Particulars: as discussed in co-pending U.S. Ser. No. 14/133,855 and PCT US2013/076367; cited from earlier work.
The nature of series [1]: Stability on storage under accelerated conditions. The conditions noted are these: after four weeks of storage under accelerated conditions. It counts as physicochemical. On the procedure:
The stability of sodium (2R,5S,13aR)-7,9-dioxo-10-((2,4,6-trifluorobenzyl)carbamoyl)-2,3,4,5,7,9,13,13a-octahydro-2,5-methanopyrido[1′,2′:4,5]pyrazino[2,1-b][1,3]oxazepin-8-olate Form I was tested. […] In Table 5, AN refers to area normalization and is the relative peak area of the active with respect to other impurities and components contained in the sample. LS refers to labile strength and is the amount of active present relative to the theoretical amount.

The structures appear in SMILES notation.

As for `O=C(NCc1c(F)cc(F)cc1F)c1cn2c(c(O)c1=O)C(=O)N1[C@H]3CC[C@H](C3)O[C@@H]1C2` [Formula I, (2R,5S,13aR)-8-hydroxy-7,9-dioxo-N-(2,4,6-trifluorobenzyl)-2,3,4,5,7,9,13,13a-octahydro-2,5-methanopyrido[1′,2′:4,5]pyrazino[2,1-b][1,3]oxazepine-10-carboxamide], the anti-viral activity result in the series with HIV is “demonstrates anti-viral activity”.
For the compound `O=C(NCc1c(F)cc(F)cc1F)c1cn2c(c([O-])c1=O)C(=O)N1[C@H]3CC[C@H](C3)O[C@@H]1C2.[Na+]` [Formula II Form I, sodium (2R,5S,13aR)-7,9-dioxo-10-((2,4,6-trifluorobenzyl)carbamoyl)-2,3,4,5,7,9,13,13a-octahydro-2,5-methanopyrido[1′,2′:4,5]pyrazino[2,1-b][1,3]oxazepin-8-olate], the stability result in series [1] is recorded as “stable”.
